Drawing on US7666882B2, “Anthranilamide insecticides” (E.I. du Pont de Nemours and Company, priority 2002, dated 2010), this text covers insect mortality for one compound.

The data set relates to potato leafhopper (Empoasca fabae Harris). Nature of the data set: Test D: control of potato leafhopper through contact and/or systemic means on Longio bean plant. The data set is classed as in vivo. As to conditions: sprayed at 250 ppm, adults post-infested, 6 days, 19-21° C. On the procedure: Test compounds were formulated using a solution containing 10% acetone, 90% water and 300 ppm X-77® Spreader Lo-Foam Formula non-ionic surfactant containing alkylarylpolyoxyethylene, free fatty acids, glycols and isopropanol (Loveland Industries, Inc.). The formulated compounds were applied in 1 mL of liquid through a SUJ2 atomizer nozzle with ⅛ JJ custom body (Spraying Systems Co.) positioned 1.27 cm (0.5 inches) above the top of each test unit. All experimental compounds in this screen were sprayed at 250 ppm, replicated three times. After spraying of the formulated test compound, each test unit was allowed to dry for 1 hour and then a black, screened cap was placed on top. The test units were held for 6 days in a growth chamber at 19-21° C. and 50-70% relative humidity. Each test unit was then visually assessed for insect mortality.
For evaluating control of potato leafhopper (Empoasca fabae Harris) through contact and/or systemic means, the test unit consisted of a small open container with a 5-6 day old Longio bean plant (primary leaves emerged) inside. White sand was added to the top of the soil and one of the primary leaves was excised prior to application. Test compounds were formulated and sprayed at 250 ppm and replicated three times as described for Test C. […] Each test unit was then visually assessed for insect mortality.

For the compound `CNC(=O)c1cc(Cl)cc(Cl)c1NC(=O)c1cc(OCC#N)nn1-c1ncccc1Cl` [Compound 11], the insect mortality entry was “at least 80%”.
